# From ChEMBL document CHEMBL1201862, “PubChem BioAssay data set” (2004)
#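 Results reflect a 48-hour exposure of cells in 96-well plates to compound at five concentrations. Abbreviation: GI50, concentration required for 50% inhibition of growth.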 Calls of active or inactive are those of the source. Rule as the data show it: active = GI50 up to about 1.1 µM and inactive = higher.
# Experiments:
# Assay in all cases: NCI-60 cell line screen, 48 h
# 786-0 = tested on: 786-0
# SK-MEL-5 = tested on: SK-MEL-5
# SNB-75 = tested on: SNB-75
# SK-MEL-2 = tested on: SK-MEL-2
# MDA-N = tested on: MDA-N
# HOP-92 = tested on: HOP-92
# DU-145 = tested on: DU-145
# HT-29 = tested on: HT-29
# MCF7 = tested on: MCF7
# A498 = tested on: A498
# COLO 205 = tested on: COLO 205
# NCI-H460 = tested on: NCI-H460
# OVCAR-4 = tested on: OVCAR-4
# UACC-257 = tested on: UACC-257
# BT-549 = tested on: BT-549
# TK-10 = tested on: TK-10
# HCT-116 = tested on: HCT-116
# SN12C = tested on: SN12C
# LOX IMVI = tested on: LOX IMVI
# K562 = tested on: K562
SMILES,GI50 (786-0),GI50 (SK-MEL-5),GI50 (SNB-75),GI50 (SK-MEL-2),GI50 (MDA-N),GI50 (HOP-92),GI50 (DU-145),GI50 (HT-29),GI50 (MCF7),GI50 (A498),GI50 (COLO 205),GI50 (NCI-H460),GI50 (OVCAR-4),GI50 (UACC-257),GI50 (BT-549),GI50 (TK-10),GI50 (HCT-116),GI50 (SN12C),GI50 (LOX IMVI),GI50 (K562)
COC(=O)c1scc(N)c1-n1ccc(=O)[nH]c1=O,> 100 µM (inactive),> 100 µM (inactive),> 100 µM (inactive),> 100 µM (inactive),> 100 µM (inactive),> 100 µM (inactive),> 100 µM (inactive),> 100 µM (inactive),> 100 µM (inactive),> 100 µM (inactive),> 100 µM (inactive),> 100 µM (inactive),> 100 µM (inactive),> 100 µM (inactive),> 100 µM (inactive),> 100 µM (inactive),> 100 µM (inactive),> 100 µM (inactive),> 100 µM (inactive),> 100 µM (inactive)
CCOS(=O)(=O)c1ccc(-c2c3nc(c(-c4ccc(S(=O)(=O)OCC)cc4)c4ccc([nH]4)c(-c4ccc(S(=O)(=O)OCC)cc4)c4nc(c(-c5ccc(S(=O)(=O)OCC)cc5)c5ccc2[nH]5)C=C4)C=C3)cc1,> 31.6 µM (inactive),> 31.6 µM (inactive),> 10 µM (inactive),> 31.6 µM (inactive),> 31.6 µM (inactive),> 100 µM (inactive),> 31.6 µM (inactive),> 100 µM (inactive),> 31.6 µM (inactive),> 31.6 µM (inactive),> 31.6 µM (inactive),> 31.6 µM (inactive),> 31.6 µM (inactive),> 31.6 µM (inactive),> 31.6 µM (inactive),> 31.6 µM (inactive),> 31.6 µM (inactive),> 31.6 µM (inactive),> 10 µM (inactive),> 10 µM (inactive)
COc1cc(O)c(/C=N/N=C(\N)NO)c(OC)c1,> 10 µM (inactive),> 10 µM (inactive),1.56 µM (inactive),> 10 µM (inactive),> 10 µM (inactive),> 10 µM (inactive),6.24 µM (inactive),6.31 µM (inactive),> 10 µM (inactive),> 10 µM (inactive),> 10 µM (inactive),4.08 µM (inactive),> 10 µM (inactive),> 10 µM (inactive),> 10 µM (inactive),> 10 µM (inactive),6.19 µM (inactive),> 10 µM (inactive),7.6 µM (inactive),> 10 µM (inactive)
COc1ccc(C(=O)NC2=C(Cl)C(=O)c3ccccc3C2=O)cc1,5.36 µM (inactive),1.58 µM (inactive),2.56 µM (inactive),1.02 µM (active),2.75 µM (inactive),1.36 µM (inactive),3.86 µM (inactive),4.41 µM (inactive),2.75 µM (inactive),14.6 µM (inactive),1.89 µM (inactive),3.1 µM (inactive),2.17 µM (inactive),1.71 µM (inactive),2.02 µM (inactive),3.22 µM (inactive),0.406 µM (active),2.77 µM (inactive),2.3 µM (inactive),1.36 µM (inactive)
COC(=O)c1c(C)cccc1C1CN=NC12Cc1c(C)cccc1C2=O (stereo not given),> 100 µM (inactive),53 µM (inactive),64.1 µM (inactive),99.3 µM (inactive),> 100 µM (inactive),19.9 µM (inactive),> 100 µM (inactive),90.2 µM (inactive),55.2 µM (inactive),37.8 µM (inactive),55.5 µM (inactive),97.3 µM (inactive),35.7 µM (inactive),43.4 µM (inactive),> 100 µM (inactive),> 100 µM (inactive),68.7 µM (inactive),> 100 µM (inactive),50.9 µM (inactive),37.2 µM (inactive)
O=C(N1CCOCC1)C1(c2ccccc2)CCNCC1,> 100 µM (inactive),> 100 µM (inactive),> 100 µM (inactive),> 100 µM (inactive),> 100 µM (inactive),> 100 µM (inactive),> 100 µM (inactive),> 100 µM (inactive),> 100 µM (inactive),> 100 µM (inactive),> 100 µM (inactive),> 100 µM (inactive),> 100 µM (inactive),> 100 µM (inactive),> 100 µM (inactive),> 100 µM (inactive),> 100 µM (inactive),> 100 µM (inactive),> 100 µM (inactive),> 100 µM (inactive)
COc1cccc(Nc2nc(NNC(=O)Cc3ccccc3)nc(NNC(=O)c3ccncc3)n2)c1,> 10 µM (inactive),> 10 µM (inactive),53.5 µM (inactive),> 100 µM (inactive),> 10 µM (inactive),> 10 µM (inactive),> 10 µM (inactive),> 100 µM (inactive),> 10 µM (inactive),> 100 µM (inactive),> 10 µM (inactive),> 10 µM (inactive),> 10 µM (inactive),> 10 µM (inactive),> 10 µM (inactive),> 10 µM (inactive),> 100 µM (inactive),> 10 µM (inactive),13.4 µM (inactive),> 10 µM (inactive)
CCSc1nn(-c2c3ccccc3nc3ccccc23)c(=S)s1,> 100 µM (inactive),> 100 µM (inactive),61.9 µM (inactive),> 100 µM (inactive),> 100 µM (inactive),> 100 µM (inactive),> 100 µM (inactive),> 100 µM (inactive),> 100 µM (inactive),> 100 µM (inactive),> 100 µM (inactive),> 100 µM (inactive),> 100 µM (inactive),> 100 µM (inactive),> 100 µM (inactive),> 100 µM (inactive),> 100 µM (inactive),> 100 µM (inactive),> 100 µM (inactive),> 100 µM (inactive)
CC(Nc1cc(=O)n(C)c(=O)[nH]1)c1ccccc1 (stereo not given),> 100 µM (inactive),> 100 µM (inactive),> 100 µM (inactive),> 100 µM (inactive),> 100 µM (inactive),15.5 µM (inactive),> 100 µM (inactive),> 100 µM (inactive),> 100 µM (inactive),> 100 µM (inactive),> 100 µM (inactive),> 100 µM (inactive),> 100 µM (inactive),> 100 µM (inactive),> 100 µM (inactive),> 100 µM (inactive),> 100 µM (inactive),> 100 µM (inactive),> 100 µM (inactive),> 100 µM (inactive)
NS(=O)(=O)c1ccc(NC(=S)N/C=C2\C(=O)Oc3ccccc3C2=O)cc1,40 µM (inactive),26.1 µM (inactive),4.2 µM (inactive),15.3 µM (inactive),34.4 µM (inactive),15.3 µM (inactive),27.4 µM (inactive),53.5 µM (inactive),99.5 µM (inactive),20.5 µM (inactive),40.5 µM (inactive),39.1 µM (inactive),43 µM (inactive),67.8 µM (inactive),34.7 µM (inactive),28.2 µM (inactive),33.5 µM (inactive),22.5 µM (inactive),33.6 µM (inactive),35.1 µM (inactive)
